In article PMC8151276, “An Integrated Approach toward NanoBRET Tracers for Analysis of GPCR Ligand Engagement” (Molecules, 2021):

How the values were obtained:
[1] = molecular target: T1, NPY5R (Homo sapiens, UniProt Q15761); assay: NanoBRET screen HiBiT-NPY5R in HEK293; assay type: binding; conditions: NPY5R
T1 construct: purchased Promega (in-house HiBiT-GPCR construct library, NanoBRET)
T1 sequence (Q15761 1-445): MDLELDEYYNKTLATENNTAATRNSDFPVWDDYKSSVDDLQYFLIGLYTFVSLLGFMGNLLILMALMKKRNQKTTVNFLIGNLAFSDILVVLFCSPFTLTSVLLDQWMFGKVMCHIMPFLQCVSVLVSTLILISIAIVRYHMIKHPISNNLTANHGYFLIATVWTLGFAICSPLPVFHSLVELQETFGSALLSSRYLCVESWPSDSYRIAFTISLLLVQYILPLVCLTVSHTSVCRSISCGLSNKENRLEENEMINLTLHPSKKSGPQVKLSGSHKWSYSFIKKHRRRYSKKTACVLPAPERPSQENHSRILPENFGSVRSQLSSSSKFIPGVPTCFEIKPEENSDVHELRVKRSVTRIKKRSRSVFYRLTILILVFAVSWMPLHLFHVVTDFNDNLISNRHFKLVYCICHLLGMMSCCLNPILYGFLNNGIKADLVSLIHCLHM
Description: (§1) Each tracer candidate was screened across the entire library of HiBiT-GPCR constructs using NanoBRET as the detection modality. As depicted in Figure 4A, the specificity of interactions was evaluated through decrease in BRET due to competitive displacement of a bound tracer by excess parental compound. Each tracer was analyzed for binding to each HiBiT-GPCR fusion in the absence and in the presence of competing parental compound. Briefly, HEK293 cells were transfected with HiBiT-GPCR constructs diluted into promoterless DNA to reduce expression and maximize translocation to the cell surface. Each tracer candidate was then screened at concentrations of 1 μM and 0.1 μM across cells expressing these fusions. Cells were treated for 1.5 h with tracer either alone or in the presence of 20 μM competing parental compound (i.e., control). BRET was measured upon addition of purified LgBiT and subsequent complementation with HiBiT genetically fused to a GPCR. The specificity of interactions was assessed through a decrease in BRET signal due to competitive displacement of the bound tracer. To further gauge the robustness of these interactions, the fold response over the control (i.e., BRETtracer/BRETcontrol) was calculated. We chose a 1.5-fold response, which translates to ≥7-fold signal over noise as the minimal threshold required to score an interaction as positive.
(§2) HiBiT-GPCR DNA constructs were diluted in 10 mM Tris pH 8 to a final concentration of 0.01 μg/μL, arrayed in 96-well plates and stored at −20 °C. For transfection, HEK293 cells were suspended in Opti-MEM (without phenol red) supplemented with 2% fetal bovine serum (Seradigm) and 100 units/mL penicillin–streptomycin (Gibco) at a final concentration of 220,000 cells/mL and dispensed into white 96-well plates at 90 μL/well. Subsequent transfections and screens were carried using an Agilent Bravo Automated Liquid Handling Platform. First, the 96-well HiBiT DNA arrays were diluted 25-fold in Opti-MEM (without serum or phenol red) to a final concentration of 0.0004 μg/μL and 20 μL of the diluted DNAs were transferred into new 96-well plates. Next, promoterless carrier DNA (1 μg/μL) was diluted 25-fold (0.04 μg/μL) and then dispensed into the diluted arrays at 20 μL/well. Following brief mixing, Viafect transfection reagent (Promega) diluted 16-fold into Opti-MEM was dispensed into the plates at 40 μL/well. After mixing by pipetting, plates were incubated for 10 min on the pipetting station deck. The DNA-transfection reagent complexes were then added to plates containing cells. To facilitate the screen, 10 μL of DNA-transfection reagent complexes were added in duplicates to the top 4 and bottom 4 rows, resulting in two identical 48-well arrays per plate. Plates with transfected cells were incubated for 18–20 h at 37 °C/5% CO2. A screen of each tracer across the entire library using two different concentrations requires duplicate plates of transfected cells. Depending on the number of tracers being screened, transfections can be scaled up using the same ratios. The next day, for each tracer, four 20× screening solutions in tracer dilution buffer (Promega) were prepared: two duplicates at final concentration of 20 μM and two duplicates at a final concentration of 2 μM. […] The four resulting solutions were diluted 4-fold in Opti-MEM without serum or phenol red to generate 5× solutions (5 µM and 0.5 µM tracer +/− 100 μM competing compound). To screen the library, a BioTek MultiFlo FX liquid dispenser was used to dispense 22.5 µL of tracer solution to the top 4 rows and 22.5 µL tracer + competing compound solution to the 4 bottom rows. Plates were briefly mixed on an orbital shaker and incubated for 1.5 h at room temperature. […] Plates were briefly mixed on an orbital shaker and incubated for 15 min to allow complementation.

[2] = molecular target: T2, P2RY8 (Homo sapiens, UniProt Q86VZ1); assay: NanoBRET screen HiBiT-P2RY8 in HEK293; assay type: binding; conditions: P2RY8
T2 construct: purchased Promega (in-house HiBiT-GPCR construct library, NanoBRET)
Description: as §1, §2

T2 sequence (Q86VZ1 whole entry): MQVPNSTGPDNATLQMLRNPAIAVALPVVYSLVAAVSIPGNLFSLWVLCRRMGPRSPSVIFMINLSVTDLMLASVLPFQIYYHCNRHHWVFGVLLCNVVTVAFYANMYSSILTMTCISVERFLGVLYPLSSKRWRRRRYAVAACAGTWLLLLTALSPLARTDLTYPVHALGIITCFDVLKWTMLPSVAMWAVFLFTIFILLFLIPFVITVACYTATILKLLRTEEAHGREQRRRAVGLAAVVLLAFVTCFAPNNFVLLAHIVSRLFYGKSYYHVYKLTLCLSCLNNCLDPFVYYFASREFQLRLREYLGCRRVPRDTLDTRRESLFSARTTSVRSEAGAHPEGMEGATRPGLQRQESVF

In the case of O=C(CCOCCOCCOCCOCCNC(=O)CCc1ccc2n1[B-](F)(F)[N+]1=C(c3ccc[nH]3)C=CC1=C2)NCCCN1CCN(C2=Nc3ccccc3Oc3ccc(Cl)cc32)CC1 [Loxapine-a-2-NB590], the “NanoBRET Fold Response” value ([1]; tracer 0.1μM) is reported as 0.96, the “NanoBRET Fold Response” value ([1]; tracer 1μM) is reported as 1.09 and the “NanoBRET Fold Response” value ([2]; tracer 0.1μM) is reported as 0.95. The “NanoBRET Fold Response” value ([2]; tracer 1μM) was 0.87.
In the case of COc1ccccc1N1CCN(CCCCN2C(=O)c3ccc(CNC(=O)CCOCCOCCOCCOCCNC(=O)CCc4ccc5n4[B-](F)(F)[N+]4=C(c6ccc[nH]6)C=CC4=C5)cc3C2=O)CC1 [NAN-190-2-NB590], the “NanoBRET Fold Response” value ([2]; tracer 0.1μM) is reported as 0.99 and the “NanoBRET Fold Response” value ([2]; tracer 1μM) is reported as 1.14.
With COc1ccccc1N1CCN(CCCCN2C(=O)c3ccc(CNC(=O)CCOCCNC(=O)c4ccc(CNC(=O)CCc5ccc6n5[B-](F)(F)[N+]5=C(c7ccc[nH]7)C=CC5=C6)cc4)cc3C2=O)CC1 [NAN-190-3-NB590] the “NanoBRET Fold Response” value ([1]; tracer 0.1μM) was 1.01, the “NanoBRET Fold Response” value ([1]; tracer 1μM) was 0.97 and the “NanoBRET Fold Response” value ([2]; tracer 0.1μM) was 1.21. The “NanoBRET Fold Response” value ([2]; tracer 1μM) was 1.12.
With O=C(CCc1ccc2n1[B-](F)(F)[N+]1=C(c3ccc[nH]3)C=CC1=C2)NCc1ccc(C(=O)NCCOCCC(=O)N[C@@H]2CC[C@@]3(O)[C@H]4Cc5ccc(O)c6c5[C@@]3(CCN4CC3CC3)[C@H]2O6)cc1 [Naltrexone-3-NB590] the “NanoBRET Fold Response” value ([2]; tracer 0.1μM) was 0.86 and the “NanoBRET Fold Response” value ([2]; tracer 1μM) was 0.47.
In the case of Cc1cc2c(s1)Nc1ccccc1N=C2N1CCN(CCCNC(=O)CCOCCOCCOCCOCCNC(=O)CCc2ccc3n2[B-](F)(F)[N+]2=C(c4ccc[nH]4)C=CC2=C3)CC1 [Olanzapine-a-2-NB590], the “NanoBRET Fold Response” value ([1]; tracer 0.1μM) is reported as 1.00, the “NanoBRET Fold Response” value ([1]; tracer 1μM) is reported as 1.01 and the “NanoBRET Fold Response” value ([2]; tracer 1μM) is reported as 1.13.
With O=C(CCc1ccc2n1[B-](F)(F)[N+]1=C(c3ccc[nH]3)C=CC1=C2)NCc1ccc(C(=O)NCCOCCOCCNCC(O)COc2cccc3ccccc23)cc1 (centres unmarked) [Propranolol-3-NB590] the “NanoBRET Fold Response” value ([1]; 0.1μM) was 0.99, the “NanoBRET Fold Response” value ([1]; 1μM) was 1.01 and the “NanoBRET Fold Response” value ([2]; 0.1μM) was 1.11. For the same compound, the “NanoBRET Fold Response” value ([2]; 1μM) was 1.00.
For O=C(CCc1ccc2n1[B-](F)(F)[N+]1=C(c3ccc[nH]3)C=CC1=C2)NCCOCCOCCNC(=O)OCCOCCN1CCN(C2=Nc3ccccc3Sc3ccccc32)CC1 [Quetiapine-a-2-NB590], the “NanoBRET Fold Response” value ([1]; tracer 0.1μM) was 0.98, the “NanoBRET Fold Response” value ([1]; tracer 1μM) was 0.87 and the “NanoBRET Fold Response” value ([2]; tracer 0.1μM) was 0.94. The “NanoBRET Fold Response” value ([2]; tracer 1μM) was 0.88.
With Cc1nc2n(c(=O)c1CCN1CCC(c3noc4cc(F)ccc34)CC1)CCCC2OC(=O)NCCOCCOCCOCCOCCNC(=O)CCc1ccc2n1[B-](F)(F)[N+]1=C(c3ccc[nH]3)C=CC1=C2 (centres unmarked) [Risperidone-2-NB590] the “NanoBRET Fold Response” value ([1]; tracer 0.1μM) was 0.97, the “NanoBRET Fold Response” value ([1]; tracer 1μM) was 0.96 and the “NanoBRET Fold Response” value ([2]; tracer 0.1μM) was 1.06. For the same compound, the “NanoBRET Fold Response” value ([2]; tracer 1μM) was 0.96.
CC(C)N(CC[C@H](c1ccccc1)c1cc(CCNC(=O)CCOCCOCCOCCOCCNC(=O)CCc2ccc3n2[B-](F)(F)[N+]2=C(c4ccc[nH]4)C=CC2=C3)ccc1O)C(C)C [Tolterodine-2-NB590] was tested, and the “NanoBRET Fold Response” value ([1]; tracer 0.1μM) was 0.95, the “NanoBRET Fold Response” value ([1]; tracer 1μM) was 0.95 and the “NanoBRET Fold Response” value ([2]; tracer 0.1μM) was 1.06. The “NanoBRET Fold Response” value ([2]; tracer 1μM) was 1.22.
In the case of CC(C)N(CC[C@H](c1ccccc1)c1cc(CCNC(=O)c2ccc(CNC(=O)CCc3ccc4n3[B-](F)(F)[N+]3=C(c5ccc[nH]5)C=CC3=C4)cc2)ccc1O)C(C)C [Tolterodine-BZ-NB590], the “NanoBRET Fold Response” value ([1]; tracer 0.1μM) is reported as 1.05, the “NanoBRET Fold Response” value ([1]; tracer 1μM) is reported as 0.99 and the “NanoBRET Fold Response” value ([2]; tracer 0.1μM) is reported as 0.96. For the same compound, the “NanoBRET Fold Response” value ([2]; tracer 1μM) was 1.01.
